The values below are quoted from earlier work in patent US6458821B1, “N-substituted azabicycloheptane derivatives, production and use thereof” (Abbott Laboratories, priority 1998, dated 2002).

The structures appear in SMILES notation.

For data set [1] the following is noted: limits the dosage of substance A.
In another data set the target is serotonin 2A receptor (Homo sapiens, UniProt P28223). Conditions: background statement on substance A.
Another data set deals with T1, dopamine D4 receptor (Homo sapiens, UniProt P21917).
T1 sequence (P21917 1-419): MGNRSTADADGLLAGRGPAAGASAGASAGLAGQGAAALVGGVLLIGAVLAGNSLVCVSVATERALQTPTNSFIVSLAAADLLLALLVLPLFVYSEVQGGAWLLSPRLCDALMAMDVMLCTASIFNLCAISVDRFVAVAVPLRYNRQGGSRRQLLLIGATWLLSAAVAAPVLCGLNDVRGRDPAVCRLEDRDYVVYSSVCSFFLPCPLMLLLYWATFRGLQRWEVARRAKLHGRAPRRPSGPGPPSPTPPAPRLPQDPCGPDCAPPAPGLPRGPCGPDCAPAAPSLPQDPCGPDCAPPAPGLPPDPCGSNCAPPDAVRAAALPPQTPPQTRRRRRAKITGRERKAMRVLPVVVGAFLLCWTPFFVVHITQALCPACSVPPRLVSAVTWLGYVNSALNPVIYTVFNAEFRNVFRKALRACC
The following applies: background statement on substance A.

The next data set concerns the target D2 (Homo sapiens, UniProt P14416). Conditions: D4/5-HT2A versus D2; background statement.

serotonin 2A receptor, sequence (P28223 whole entry): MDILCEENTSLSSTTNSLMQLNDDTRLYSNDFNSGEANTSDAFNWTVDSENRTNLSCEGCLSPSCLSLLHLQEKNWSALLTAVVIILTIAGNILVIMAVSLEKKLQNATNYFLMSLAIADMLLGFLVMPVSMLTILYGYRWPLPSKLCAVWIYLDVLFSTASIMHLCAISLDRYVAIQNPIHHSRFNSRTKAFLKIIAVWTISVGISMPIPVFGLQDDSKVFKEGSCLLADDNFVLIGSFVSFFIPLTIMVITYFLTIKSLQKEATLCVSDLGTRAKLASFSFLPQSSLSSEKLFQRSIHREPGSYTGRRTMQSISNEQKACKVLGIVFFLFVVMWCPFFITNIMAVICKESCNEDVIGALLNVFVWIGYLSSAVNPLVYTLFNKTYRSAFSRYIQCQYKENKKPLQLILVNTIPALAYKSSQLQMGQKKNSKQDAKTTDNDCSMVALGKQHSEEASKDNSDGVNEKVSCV
D2, sequence (P14416 whole entry): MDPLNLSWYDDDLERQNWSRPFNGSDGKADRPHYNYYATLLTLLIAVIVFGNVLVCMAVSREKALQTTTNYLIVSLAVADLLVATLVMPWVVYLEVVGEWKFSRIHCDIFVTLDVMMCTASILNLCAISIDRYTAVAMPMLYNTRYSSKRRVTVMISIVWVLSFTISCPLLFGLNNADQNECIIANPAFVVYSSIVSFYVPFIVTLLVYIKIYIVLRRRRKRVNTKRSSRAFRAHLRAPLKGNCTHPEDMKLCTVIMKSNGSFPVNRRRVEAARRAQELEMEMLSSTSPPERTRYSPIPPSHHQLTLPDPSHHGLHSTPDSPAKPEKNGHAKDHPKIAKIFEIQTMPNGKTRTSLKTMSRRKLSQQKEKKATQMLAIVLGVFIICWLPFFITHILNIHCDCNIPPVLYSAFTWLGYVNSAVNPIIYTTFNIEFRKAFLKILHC

With `O=c1[nH]c2ccccc2c(=O)n1CCN1C[C@H]2C[C@H](c3ccc(F)cc3)[C@H]2C1` [substance A, (+)-(1S,5R,6S)-exo-3-[2-[6-(4-fluorophenyl)-3-azabicyclo[3.2.0]-heptan-3-yl]ethyl]-1H,3H-quinazoline-2,4-dione], in data set [1], the “prolongations in the QT interval in the ECG” value is on record as “prolongations which occur in the QT interval”. For the same compound, the 5-HT2A affinity entry at serotonin 2A receptor was “high”. At dopamine D4 receptor, the D4 affinity result is given as “high”. For the same compound, on D2, the “selectivity versus D2” value was “good selectivity”.
